Data: patent US4269820A, “Safeguarded toxic chemical compositions containing effective emesis-inducing S-triazolo-[1,5-α]pyrimidine derivatives” (priority 1977, dated 1981)

Assays:
in vivo = settings: cynomolgus monkey, po
[1] = Time to emesis and survival after oral administration of pesticide with or without emetic (Example 27, Table 1); type: in vivo, Macaca fascicularis (Cynomolgus monkeys); settings: for Animals in which emesis took place / Survival number after 14 days: 2 animals
[2] = in vivo; cited from earlier work
[3] = cited from earlier work

Row | Structure (SMILES) | LD50 (in vivo) | Animals in which emesis took place ([1]; Malathion only, 500 mg/kg) | Survival number after 14 days ([1]; Malathion only, 500 mg/kg) | Time to emesis ([1]; Parathion only, 200 mg/kg) | Animals in which emesis took place ([1]; Parathion only, 200 mg/kg) | Survival number after 14 days ([1]; Parathion only, 200 mg/kg) | Side effects of known emetic [2] | Stability in air [3]
1 | CCOC(=O)CC(SP(=S)(OC)OC)C(=O)OCC (stereo not drawn) [Malathion, S-[1,2-di(ethoxycarbonyl)ethyl] dimethyl phosphorothiolothionate] | 270 to 400 mg/kg | 1 | 0 | – | – | – | – | –
2 | CCOP(=S)(OCC)Oc1ccc([N+](=O)[O-])cc1 [Parathion, diethyl 4-nitrophenyl phosphorothionate] | ~100 mg/kg | – | – | 1 h | 1 | 0 | – | –
3 | CN1CCc2cccc3c2[C@H]1Cc1ccc(O)c(O)c1-3 [apomorphine] | – | – | – | – | – | – | may induce protracted vomiting and shock | unstable in air, oxidising readily
